Reference: US8188075B2, “Triazole compounds that modulate HSP90 activity” (Synta Pharmaceuticals Corp., priority 2006, dated 2012)
pIC50: −log10 of the molar value.

Experiments:
[1] = test system: VE-cadherin junctions between HUVEC cells; test: immunofluorescence study of VE-cadherin junctions between HUVEC cells; assay type: cell-based, human; conditions: 24 hrs
Protocol: An immunofluorescence study was performed by using anti-VE-cadherin antibodies (1:1 mixed, obtained from Amersham Biosciences, NJ, and Santa Cruz Biotechnology, CA) to examine VE-cadherin junctions between HUVEC cells. HUVEC cells were treated with DMSO or Compound 226 (10, 100 and 1000 nM) for 24 hrs and fixed for immunostaining. DMSO concentration was 1:100 for all treatments. To boost the immunofluorescence signal, cells were stained with a mixture of 2 polyclonal anti-human VE-cadherin Abs followed by staining with a mixture of fluorescent secondary antibodies. […] Non-DMSO treated cells gave a similar result to those with DMSO treatment (data not shown). […] This effect could result in limited motility of the cells and reducing permeability of the endothelium, thus contributing to the cell migration inhibition and the potential anti-angiogenesis effect of Compound 226.

HUVEC = HUVEC killing (separate reference experiment); assay type: cell-based; conditions: Homo sapiens
[2] = test system: human umbilical vein endothelial cell (HUVEC); test: in vitro HUVEC migration assay (time-lapse imaging of scraped confluent cultures); assay type: cell-based
Protocol: To examine if the compounds of the invention affect endothelial cell function, an in vitro human umbilical vein endothelial cell (HUVEC) migration assay was performed in the presence of Compound 226. HUVEC cells (ATCC, VA) (passage number 4) were cultured in EGM2 medium (Cambrex, Mass.) on 12-well plates and performed time-lapse imaging with the live cell imaging system on an inverted microscope supplied with 6-7% CO2. The temperature was kept at 37° C. Images were taken every 30 minutes using the 2× objective for up to 106 hr (results in FIGS. 1, 2 and 3), or, every 60 seconds using the 20× objective for 30 min (for FIG. 4). Confluent HUVEC cultures were scraped similarly to make a blank area, followed by culturing in HUVEC medium for 15 hr without treatment. The migration areas, which were imaged as time-lapse sequences for each well, were used as a basis to standardize/correct migration rates. Then, migration of cells under different treatments was imaged at the same time to generate time-lapse image sequences for each well. Time-lapse movies were further analyzed by measuring areas that were covered by migrating cells. […] The red lines indicate the front lines of migrating cells. DMSO (1:100) treated cells migrated rapidly and covered the entire blank (wounded) area at 106 hr. […] During experiments, HUVEC cells were activated by the presence of VEGF (Cambrex, Mass.) and basic FGF (Cambrex, Mass.).
In addition to the analysis of HUVEC cell migration, HUVEC behavior was also tracked during above treatments.

Q: CC(C)c1cc(-c2nnc(O)n2-c2ccc3c(ccn3C)c2)c(O)cc1O [Compound 226, 3-(2,4-dihydroxy-5-isopropyl-phenyl)-4-(1-methyl-indol-5-yl)-5-hydroxy-[1,2,4] triazole] was tested. Which “VE-cadherin staining in cell-cell junction regions” value ([1]; 10 nM, compared to DMSO) did it give?
A: The value was “extremely strong”.

Q: What about the VE-cadherin staining areas ([1]; 100 nM) of the same compound?
A: The VE-cadherin staining areas was “further increase the VE-cadherin staining areas”.

Q: And the VE-cadherin molecules distribution ([1]; 1 μM)?
A: The VE-cadherin molecules distribution was “Aggregations of VE-cadherin molecules appeared”.

Q: And the pIC50 (HUVEC)?
A: The pIC50 was ~6.10.

Q: What about the “migration of HUVEC cells to the blank area” value ([2]; 100 nM and 1 μM, up to 106 hr, compared to DMSO, cells activated by VEGF and basic FGF) of the same compound?
A: The value was “completely blocked migration”.

Q: What about the “HUVEC cell-cell contact lines (morphology)” value ([2]; 100 nM, 2× and 20× magnification (FIG. 4)) of the same compound?
A: Its value is “Cell-cell contact lines disappeared”.

Q: And the “movement of HUVEC cells in time-lapse videos (20× objective)” value ([2]; 100 nM, versus DMSO treated cells)?
A: Its value is “significantly reduced movement”.

Q: And the pIC50 ([2]; Homo sapiens, HUVEC, estimated from similar covered areas at 100 nM and 1 μM (FIG. 2), read-out: IC50 of the inhibition of HUVEC migration)?
A: Its pIC50 is > 7.00.

Q: What about the HUVEC cell shrinkage ([2]; after 24 hr treatment with 100 nM and 1 μM) of the same compound?
A: Its HUVEC cell shrinkage is “began to shrink”.

Q: And the “cell death of HUVEC during migration assay” value ([2]; at 24 hr (FIG. 3))?
A: The value was “no significant cell death”.

Q: And the HUVEC cell survival ([2]; at 48 hr, 1 μM)?
A: Its HUVEC cell survival is “majority of cells were alive”.
